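Five compound concentrations were applied to cells in 96-well plates for 48 hours; endpoints were derived by simple linear interpolation of the resulting dose-response curve. GI50 = concentration required for 50% inhibition of growth. TGI denotes the concentration required for complete inhibition of growth.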
Assays:
Assay in all cases: growth of human tumour cells (NCI), 48 h
SF-268 CNS = system: SF-268 CNS
SK-MEL-5 melanoma = system: SK-MEL-5 melanoma
ACHN renal = system: ACHN renal
A549 NSCLC = system: A549 NSCLC
HCT-116 colon = system: HCT-116 colon
CCRF-CEM leukemia = system: CCRF-CEM leukemia
RPMI-8226 leukemia = system: RPMI-8226 leukemia
A498 renal = system: A498 renal
OVCAR-3 ovarian = system: OVCAR-3 ovarian
HCC-2998 colon = system: HCC-2998 colon

COc1ccc(/C=C/C(=O)Oc2cc(O)cc(O)c2)cc1
TGI (SF-268 CNS): 86.5 µM | TGI (SK-MEL-5 melanoma): > 100 µM | TGI (ACHN renal): > 100 µM | TGI (A549 NSCLC): > 100 µM | TGI (HCT-116 colon): 39.5 µM | TGI (CCRF-CEM leukemia): 37.3 µM | TGI (RPMI-8226 leukemia): 42.4 µM | TGI (A498 renal): > 100 µM | TGI (OVCAR-3 ovarian): 32.1 µM | TGI (HCC-2998 colon): > 100 µM

c1cn2cc(-c3ccc4cn[nH]c4c3)nc(Nc3ccc(N4CCOCC4)cc3)c2n1
GI50 (SF-268 CNS): 5.11 µM | TGI (SF-268 CNS): 27.4 µM | GI50 (SK-MEL-5 melanoma): 15.5 µM | TGI (SK-MEL-5 melanoma): 40.1 µM | GI50 (ACHN renal): 11.1 µM | TGI (ACHN renal): 32.2 µM | GI50 (A549 NSCLC): 10.4 µM | TGI (A549 NSCLC): 28.8 µM | GI50 (HCT-116 colon): 10.1 µM | TGI (HCT-116 colon): 23.3 µM | GI50 (CCRF-CEM leukemia): > 100000 nM | TGI (CCRF-CEM leukemia): > 100 µM | GI50 (RPMI-8226 leukemia): 18500 nM | TGI (RPMI-8226 leukemia): 86.6 µM | GI50 (A498 renal): 11.9 µM | TGI (A498 renal): 36.2 µM | GI50 (OVCAR-3 ovarian): 18.4 µM | TGI (OVCAR-3 ovarian): 40.2 µM | GI50 (HCC-2998 colon): 61.6 µM | TGI (HCC-2998 colon): > 100 µM

C=C1C(=O)O[C@H]2[C@H]1CC/C(COC(=O)NCCc1c[nH]c3ccc(OC)cc13)=C\CC[C@@]1(C)O[C@@H]21
GI50 (SF-268 CNS): 3 µM | TGI (SF-268 CNS): 13.1 µM | GI50 (SK-MEL-5 melanoma): 3.13 µM | TGI (SK-MEL-5 melanoma): 10.6 µM | GI50 (ACHN renal): 1.38 µM | TGI (ACHN renal): 2.72 µM | GI50 (A549 NSCLC): 4.58 µM | TGI (A549 NSCLC): 18.4 µM | GI50 (HCT-116 colon): 1.46 µM | TGI (HCT-116 colon): 3.11 µM | GI50 (CCRF-CEM leukemia): 640 nM | TGI (CCRF-CEM leukemia): 4.36 µM | GI50 (RPMI-8226 leukemia): 1440 nM | TGI (RPMI-8226 leukemia): 4.74 µM | GI50 (A498 renal): 10.5 µM | TGI (A498 renal): 22.7 µM | GI50 (OVCAR-3 ovarian): 1.44 µM | TGI (OVCAR-3 ovarian): 3.92 µM | GI50 (HCC-2998 colon): 2.34 µM | TGI (HCC-2998 colon): 5.64 µM

O=c1[nH]cnc2[nH]ncc12
GI50 (SF-268 CNS): > 5000 µM | TGI (SF-268 CNS): > 5000 µM | GI50 (SK-MEL-5 melanoma): 1200 µM | TGI (SK-MEL-5 melanoma): > 5000 µM | GI50 (ACHN renal): 193 µM | TGI (ACHN renal): > 5000 µM | GI50 (A549 NSCLC): 1940 µM | TGI (A549 NSCLC): > 5000 µM | GI50 (HCT-116 colon): 444 µM | TGI (HCT-116 colon): > 5000 µM | GI50 (CCRF-CEM leukemia): 360000 nM | TGI (CCRF-CEM leukemia): > 5000 µM | GI50 (RPMI-8226 leukemia): 116000 nM | TGI (RPMI-8226 leukemia): > 5000 µM | GI50 (A498 renal): 532 µM | TGI (A498 renal): > 5000 µM | GI50 (OVCAR-3 ovarian): 269 µM | TGI (OVCAR-3 ovarian): > 1820 µM | GI50 (HCC-2998 colon): 319 µM | TGI (HCC-2998 colon): > 5000 µM

c1ccc(-n2nnnc2-c2cccc3ccccc23)cc1
GI50 (SF-268 CNS): 0.833 µM | TGI (SF-268 CNS): > 73.1 µM | GI50 (SK-MEL-5 melanoma): 0.462 µM | TGI (SK-MEL-5 melanoma): 20.2 µM | GI50 (ACHN renal): 0.84 µM | TGI (ACHN renal): > 100 µM | GI50 (A549 NSCLC): 1.04 µM | TGI (A549 NSCLC): > 100 µM | GI50 (HCT-116 colon): 0.401 µM | TGI (HCT-116 colon): 24.5 µM | GI50 (CCRF-CEM leukemia): 447 nM | TGI (CCRF-CEM leukemia): > 100 µM | GI50 (RPMI-8226 leukemia): 579 nM | TGI (RPMI-8226 leukemia): 45.7 µM | GI50 (A498 renal): 0.704 µM | TGI (A498 renal): > 55.3 µM | GI50 (OVCAR-3 ovarian): 0.257 µM | TGI (OVCAR-3 ovarian): 0.627 µM | GI50 (HCC-2998 colon): 1.12 µM | TGI (HCC-2998 colon): 10.3 µM

c1ccc2c(c1)[nH]c1cnc3c4cccnc4[nH]c3c12
TGI (SF-268 CNS): 36.1 µM | TGI (SK-MEL-5 melanoma): 39.9 µM | TGI (ACHN renal): 23.4 µM | TGI (A549 NSCLC): 34.7 µM | TGI (HCT-116 colon): 30.8 µM | TGI (CCRF-CEM leukemia): 54.2 µM | TGI (RPMI-8226 leukemia): 58.5 µM | TGI (A498 renal): > 100 µM | TGI (OVCAR-3 ovarian): 32.2 µM | TGI (HCC-2998 colon): 34.5 µM

Cc1c(C)[n+](=O)c(C)c(C)n1[O-]
GI50 (SF-268 CNS): > 100 µM | TGI (SF-268 CNS): > 100 µM | GI50 (SK-MEL-5 melanoma): > 100 µM | TGI (SK-MEL-5 melanoma): > 100 µM | GI50 (ACHN renal): > 100 µM | TGI (ACHN renal): > 100 µM | GI50 (A549 NSCLC): > 100 µM | TGI (A549 NSCLC): > 100 µM | GI50 (HCT-116 colon): > 100 µM | TGI (HCT-116 colon): > 100 µM | GI50 (CCRF-CEM leukemia): > 100000 nM | TGI (CCRF-CEM leukemia): > 100 µM | GI50 (RPMI-8226 leukemia): > 100000 nM | TGI (RPMI-8226 leukemia): > 100 µM | GI50 (A498 renal): > 100 µM | TGI (A498 renal): > 100 µM | GI50 (OVCAR-3 ovarian): > 100 µM | TGI (OVCAR-3 ovarian): > 100 µM | GI50 (HCC-2998 colon): > 100 µM | TGI (HCC-2998 colon): > 100 µM

COc1ccc(C(=O)c2cc3c(OC)c(OC)c(OC)cc3[nH]2)cc1
GI50 (SF-268 CNS): 68.1 µM | TGI (SF-268 CNS): > 100 µM | GI50 (SK-MEL-5 melanoma): 2.2 µM | TGI (SK-MEL-5 melanoma): 5.62 µM | GI50 (ACHN renal): 12.8 µM | TGI (ACHN renal): > 100 µM | GI50 (A549 NSCLC): 5.77 µM | TGI (A549 NSCLC): > 100 µM | GI50 (HCT-116 colon): 3.22 µM | TGI (HCT-116 colon): > 100 µM | GI50 (CCRF-CEM leukemia): 5270 nM | TGI (CCRF-CEM leukemia): > 100 µM | GI50 (RPMI-8226 leukemia): 2810 nM | TGI (RPMI-8226 leukemia): 8.13 µM | GI50 (A498 renal): 6.45 µM | TGI (A498 renal): 47.7 µM | GI50 (OVCAR-3 ovarian): 9.07 µM | TGI (OVCAR-3 ovarian): > 100 µM | GI50 (HCC-2998 colon): 3.8 µM | TGI (HCC-2998 colon): > 100 µM

O=c1cc(-c2ccccc2)[nH]n1-c1nc2ccccc2[nH]1
GI50 (SF-268 CNS): 8.67 µM | TGI (SF-268 CNS): > 100 µM | GI50 (SK-MEL-5 melanoma): 5.18 µM | TGI (SK-MEL-5 melanoma): 23.4 µM | GI50 (ACHN renal): 4.36 µM | TGI (ACHN renal): > 100 µM | GI50 (A549 NSCLC): 4.46 µM | TGI (A549 NSCLC): > 100 µM | GI50 (HCT-116 colon): 3.12 µM | TGI (HCT-116 colon): > 100 µM | GI50 (CCRF-CEM leukemia): 1220 nM | TGI (CCRF-CEM leukemia): > 100 µM | GI50 (RPMI-8226 leukemia): 3590 nM | TGI (RPMI-8226 leukemia): 52.4 µM | GI50 (A498 renal): 3.72 µM | TGI (A498 renal): 22.9 µM | GI50 (OVCAR-3 ovarian): 4.46 µM | TGI (OVCAR-3 ovarian): > 100 µM | GI50 (HCC-2998 colon): 23.1 µM | TGI (HCC-2998 colon): > 100 µM

O=C(N/N=C/c1ccc([N+](=O)[O-])cc1)c1ccc2nc(-c3ccc(Cl)cc3)[nH]c2c1
GI50 (SF-268 CNS): 4.97 µM | TGI (SF-268 CNS): 24.3 µM | GI50 (SK-MEL-5 melanoma): 2.11 µM | TGI (SK-MEL-5 melanoma): 4.78 µM | GI50 (ACHN renal): 4.36 µM | TGI (ACHN renal): 31.9 µM | GI50 (A549 NSCLC): 3.98 µM | TGI (A549 NSCLC): 24.1 µM | GI50 (HCT-116 colon): 2.25 µM | TGI (HCT-116 colon): 6.9 µM | GI50 (CCRF-CEM leukemia): 591 nM | TGI (CCRF-CEM leukemia): 17.7 µM | GI50 (RPMI-8226 leukemia): 461 nM | TGI (RPMI-8226 leukemia): 2.41 µM | GI50 (A498 renal): 2.39 µM | TGI (A498 renal): 7.75 µM | GI50 (OVCAR-3 ovarian): 3.25 µM | TGI (OVCAR-3 ovarian): 8.23 µM | GI50 (HCC-2998 colon): 1.48 µM | TGI (HCC-2998 colon): 4.81 µM

Cc1c2c[n+](C(C)C)ccc2c(C)c2c1[nH]c1ccccc12
GI50 (SF-268 CNS): 0.475 µM | TGI (SF-268 CNS): 14.9 µM | GI50 (SK-MEL-5 melanoma): 1.5 µM | TGI (SK-MEL-5 melanoma): 3.89 µM | GI50 (ACHN renal): 22.6 µM | TGI (ACHN renal): > 100 µM | GI50 (A549 NSCLC): 2.55 µM | TGI (A549 NSCLC): > 100 µM | GI50 (HCT-116 colon): 4.36 µM | TGI (HCT-116 colon): 68.2 µM | GI50 (CCRF-CEM leukemia): 3970 nM | TGI (CCRF-CEM leukemia): 38.7 µM | GI50 (RPMI-8226 leukemia): 1820 nM | TGI (RPMI-8226 leukemia): 13.1 µM | GI50 (A498 renal): 1.94 µM | TGI (A498 renal): 64 µM | GI50 (OVCAR-3 ovarian): 2.61 µM | TGI (OVCAR-3 ovarian): 12.2 µM | GI50 (HCC-2998 colon): 2.99 µM | TGI (HCC-2998 colon): 13.7 µM
